Test results: article PMC8402619 (Viruses, 2021)
Where two headings read alike, the source gives them in different places.

Key:
CYP2B6 [1] = biological target: T1, CYP2B6 (Homo sapiens, UniProt P20813); assay: Time-dependent CYP inhibition in pooled human liver microsomes; type: in vitro ADME
T1 sequence (P20813 1-491): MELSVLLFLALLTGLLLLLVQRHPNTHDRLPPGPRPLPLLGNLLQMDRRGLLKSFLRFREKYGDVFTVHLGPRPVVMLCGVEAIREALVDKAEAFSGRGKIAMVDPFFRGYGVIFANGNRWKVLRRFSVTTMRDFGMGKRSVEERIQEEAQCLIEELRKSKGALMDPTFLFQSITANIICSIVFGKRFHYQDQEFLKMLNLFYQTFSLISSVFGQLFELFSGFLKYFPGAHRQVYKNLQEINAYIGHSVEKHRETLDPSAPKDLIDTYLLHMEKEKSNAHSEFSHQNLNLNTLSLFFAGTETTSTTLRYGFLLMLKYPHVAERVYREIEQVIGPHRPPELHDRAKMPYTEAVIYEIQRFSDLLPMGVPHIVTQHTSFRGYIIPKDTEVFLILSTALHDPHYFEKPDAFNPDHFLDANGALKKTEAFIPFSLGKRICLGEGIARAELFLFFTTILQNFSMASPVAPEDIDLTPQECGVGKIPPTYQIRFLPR

CYP2B6 [2] = biological target: T1, CYP2B6; assay: Reversible CYP inhibition in pooled human liver microsomes; type: in vitro ADME
BCRP = biological target: T2, BCRP (Homo sapiens, UniProt Q9UNQ0); assay: Bidirectional transport across MDCKII and MDCKII-BCRP cell monolayers; type: in vitro ADME; design: expressed in transfected cells; host or cells: MDCKII; conditions: for efflux ratio at 3 h, 2 µM: human
T2 sequence (Q9UNQ0 1-655): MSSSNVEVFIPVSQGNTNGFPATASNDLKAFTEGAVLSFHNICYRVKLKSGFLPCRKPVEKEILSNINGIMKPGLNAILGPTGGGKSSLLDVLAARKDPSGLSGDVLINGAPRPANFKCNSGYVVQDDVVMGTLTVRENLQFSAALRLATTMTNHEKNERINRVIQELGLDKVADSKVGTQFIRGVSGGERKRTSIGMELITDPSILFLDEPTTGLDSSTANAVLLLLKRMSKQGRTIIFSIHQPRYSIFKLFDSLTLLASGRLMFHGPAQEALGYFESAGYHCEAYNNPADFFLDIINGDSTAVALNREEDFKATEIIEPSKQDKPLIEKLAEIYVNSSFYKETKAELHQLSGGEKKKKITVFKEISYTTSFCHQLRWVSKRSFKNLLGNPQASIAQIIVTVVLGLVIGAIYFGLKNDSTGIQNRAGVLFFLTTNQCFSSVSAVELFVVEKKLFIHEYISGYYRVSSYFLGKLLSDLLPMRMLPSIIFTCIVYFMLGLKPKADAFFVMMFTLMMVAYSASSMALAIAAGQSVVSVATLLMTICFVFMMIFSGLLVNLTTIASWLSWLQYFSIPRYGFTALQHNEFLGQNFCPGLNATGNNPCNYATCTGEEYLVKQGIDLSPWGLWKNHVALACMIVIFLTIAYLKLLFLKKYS

CYP1A2 [3] = assay: CYP induction in cryopreserved human hepatocytes; conditions: for mRNA Mean Fold Change ± SD CYP1A2: 48 h, n = 3 donors, vs DMSO vehicle
[4] = biological target: T3, recombinant human adenosine deaminase (ADA) (Homo sapiens, UniProt P00813); assay: Metabolism and enzyme kinetics with recombinant human ADA; type: in vitro ADME
T3 construct: purchased Novus Biologicals, LLC
T3 sequence (P00813 whole entry): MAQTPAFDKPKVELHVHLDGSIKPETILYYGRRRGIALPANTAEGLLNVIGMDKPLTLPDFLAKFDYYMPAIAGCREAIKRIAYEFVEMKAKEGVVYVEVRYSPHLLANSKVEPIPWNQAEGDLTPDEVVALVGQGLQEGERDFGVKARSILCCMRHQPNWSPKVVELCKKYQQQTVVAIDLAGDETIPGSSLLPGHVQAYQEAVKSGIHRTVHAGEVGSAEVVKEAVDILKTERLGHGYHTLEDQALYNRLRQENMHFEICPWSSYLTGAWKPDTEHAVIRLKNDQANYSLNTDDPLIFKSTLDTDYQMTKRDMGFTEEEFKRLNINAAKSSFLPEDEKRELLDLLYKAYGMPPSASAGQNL

[5] = Renal clearance after 1 mg/kg intravenous, rabbit; type: in vivo, female Dutch Belted rabbits; conditions: 1 mg/kg intravenously
CYP1A2 [6] = biological target: T4, CYP1A2 (Homo sapiens, UniProt P05177); assay: Time-dependent CYP inhibition in pooled human liver microsomes; type: in vitro ADME
T4 sequence (P05177 1-516): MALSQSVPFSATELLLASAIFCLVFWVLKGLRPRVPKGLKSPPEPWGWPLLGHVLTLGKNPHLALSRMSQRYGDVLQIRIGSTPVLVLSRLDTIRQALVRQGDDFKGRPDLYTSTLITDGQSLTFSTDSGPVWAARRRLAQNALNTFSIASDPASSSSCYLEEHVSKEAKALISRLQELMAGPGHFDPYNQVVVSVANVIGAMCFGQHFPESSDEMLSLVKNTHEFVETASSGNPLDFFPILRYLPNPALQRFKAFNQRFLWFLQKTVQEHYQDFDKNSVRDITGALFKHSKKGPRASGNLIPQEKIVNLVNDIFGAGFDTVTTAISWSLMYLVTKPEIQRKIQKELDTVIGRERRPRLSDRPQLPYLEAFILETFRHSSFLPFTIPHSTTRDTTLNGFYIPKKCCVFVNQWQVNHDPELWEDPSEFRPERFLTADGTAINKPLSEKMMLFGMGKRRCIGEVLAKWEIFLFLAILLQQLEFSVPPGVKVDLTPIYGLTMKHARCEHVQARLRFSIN

[7] = Plasma protein binding by equilibrium dialysis, human plasma; type: in vitro ADME

Q: Which time-dependent inhibition (CYP2B6 [1]; CYP2B6, pre-incubation of 10 and 50 µM for up to 30 min) does the source give for `C#C[C@]1(CO)O[C@@H](n2cnc3c(N)nc(F)nc32)C[C@@H]1O` [Islatravir, 4′-Ethynyl-2-fluoro-2′-deoxyadenosine] here?
A: The time-dependent inhibition was “no time-dependent inhibition”.

Q: What about the “DDI Potential” value (CYP2B6 [1]; CYP2B6 time dependent inhibition) of the same molecule?
A: Its value is “Low risk ^h”.

Q: And the IC50 (CYP2B6 [1]; time dependent, CYP2B6, read-out: Islatravir IC50)?
A: The IC50 was over 50 µM.

Q: What about the “DDI Potential” value (CYP2B6 [2]; CYP2B6 reversible inhibition, FDA, EMA, PMDA guidance) of the same molecule?
A: Its value is “Low risk”.

Q: And the “Maximum Unbound Plasma Concentration (Imax,u) to Ki,u Ratio” value (CYP2B6 [2]; CYP2B6 reversible, 60 mg, Cmax 1.01 µM, fu,p 0.96, Ki,u = IC50/2)?
A: Its value is under 0.019 µM.

Q: What about the IC50 (CYP2B6 [2]; reversible, CYP2B6 bupropion hydroxylation, read-out: Islatravir IC50) of the same molecule?
A: Its IC50 is over 100 µM.

Q: And the BCRP substrate assessment (BCRP; bi-directional transport assay)?
A: Its BCRP substrate assessment is “substrate of BCRP”.

Q: What about the Papp at 3 h, 2 µM (BCRP; dog, MDCK, MDCKII cells, read-out: apparent permeability coefficient (Papp)) of the same molecule?
A: The Papp at 3 h, 2 µM was 1.6 to 2.2 ×10⁻⁶ cm/s.

Q: And the efflux ratio at 2 µM (BCRP; dog, MDCK, islatravir 2 µM, untransfected control cells, mean ± SEM, read-out: mean Papp(B to A)/Papp(A to B) efflux ratio)?
A: Its efflux ratio at 2 µM is 0.8 ± 0.2.

Q: And the efflux ratio at 3 h, 2 µM (BCRP; islatravir 2 µM, BCRP-transfected monolayers with Ko143 (5 µM), mean ± SEM, read-out: mean Papp(B to A)/Papp(A to B) efflux ratio)?
A: The efflux ratio at 3 h, 2 µM was 0.9 ± 0.1.

Q: What about the efflux ratio at 3 h, 2 µM (BCRP; islatravir 2 µM, BCRP-transfected monolayers, mean ± SEM, read-out: mean Papp(B to A)/Papp(A to B) efflux ratio) of the same molecule?
A: Its efflux ratio at 3 h, 2 µM is 4.3 ± 1.1.

Q: What about the “mRNA Mean Fold Change ± SD CYP1A2” value (CYP1A2 [3]; 0.1 µM) of the same molecule?
A: Its value is 0.4 ± 0.2.

Q: What about the “mRNA Mean Fold Change ± SD CYP1A2” value (CYP1A2 [3]; 0.5 µM) of the same molecule?
A: The value was 0.4 ± 0.2.

Q: And the “mRNA Mean Fold Change ± SD CYP1A2” value (CYP1A2 [3]; 1 µM)?
A: Its value is 0.5 ± 0.3.

Q: And the “mRNA Mean Fold Change ± SD CYP1A2” value (CYP1A2 [3]; 5 µM)?
A: The value was 0.4 ± 0.3.

Q: And the “mRNA Mean Fold Change ± SD CYP1A2” value (CYP1A2 [3]; 10 µM)?
A: The value was 0.5 ± 0.4.

Q: What about the “mRNA Mean Fold Change ± SD CYP1A2” value (CYP1A2 [3]; 20 µM) of the same molecule?
A: Its value is 0.2 ± 0.2.

Q: And the “mRNA response relative to positive control” value (CYP1A2 [3]; CYP1A2, each tested concentration 0.1-20 µM)?
A: The value was “less than 20%”.

Q: What about the “enzyme activity, fold of solvent control” value (CYP1A2 [3]; CYP1A2 phenacetin O-deethylation, all islatravir concentrations) of the same molecule?
A: Its value is at most 1.1 fold.

Q: What about the ADA-dependent deamination ([4]; 50 µM, 3 h, 1 unit/mL recombinant human ADA) of the same molecule?
A: The ADA-dependent deamination was “very slow ADA-dependent deamination to M4”.

Q: What about the Km ([4]; M4 formation, linear over 1-250 µM islatravir, read-out: Michaelis constant [Km]) of the same molecule?
A: Its Km is over 250 µM.

Q: And the “Renal Excretion (% Total Plasma Clearance)” value [5]?
A: The value was 31%.

Q: And the CL renal ([5]; female, Dutch Belted, plasma and urine, iv, urine 0-48 h)?
A: The CL renal was 5.3 mL/min/kg.

Q: What about the time-dependent inhibition (CYP1A2 [6]; CYP1A2, pre-incubation of 10 and 50 µM for up to 30 min) of the same molecule?
A: Its time-dependent inhibition is “no time-dependent inhibition”.

Q: What about the “DDI Potential” value (CYP1A2 [6]; CYP1A2 time dependent inhibition) of the same molecule?
A: Its value is “Low risk ^h”.

Q: And the IC50 (CYP1A2 [6]; time dependent, CYP1A2, read-out: Islatravir IC50)?
A: The IC50 was over 50 µM.

Q: What about the “concentration dependence of binding to plasma proteins” value ([7]; 0.1 to 10 µM, all species tested) of the same molecule?
A: Its value is “did not exhibit concentration dependence”.

Q: What about the fraction unbound at 24 h, 0.1 µM ([7]; pH 7.4, human plasma, 0.1 µM islatravir, ± standard deviation) of the same molecule?
A: Its fraction unbound at 24 h, 0.1 µM is 0.96 ± 0.04.
